{
  "source": "ChEMBL document CHEMBL4477189",
  "about": "“Effects of 2,3-Dehydrosilybin and Its Galloyl Ester and Methyl Ether Derivatives on Human Umbilical Vein Endothelial Cells” (J Nat Prod, 2016)",
  "key": {"HUVEC [1]": {"system": "HUVEC", "assay": "Antimigratory activity in HUVEC assessed as inhibition of cell migration at 10 uM measured after 16 to 20 hrs by crystal violet staining-based microscopic analysis", "format": "functional", "settings": "Homo sapiens"}, "HUVEC [2]": {"system": "HUVEC", "assay": "Antiproliferative activity in HUVEC assessed as reduction in cell viability measured after 72 hrs by MTT assay", "format": "functional, cell-based", "settings": "Homo sapiens"}, "HUVEC [3]": {"system": "HUVEC", "assay": "Cytotoxicity in HUVEC assessed as reduction in cell viability measured after 24 hrs by MTT assay", "format": "cell-based", "settings": "Homo sapiens"}, "HUVEC [4]": {"system": "HUVEC", "assay": "Antimigratory activity in HUVEC assessed as inhibition of cell migration measured after 16 to 20 hrs by crystal violet staining-based microscopic analysis", "format": "functional", "settings": "Homo sapiens"}, "[5]": {"assay": "Antiproliferative activity against bFGF-stimulated BBEC by Coulter particle counter method", "format": "functional, Bos taurus"}, "RF/6A [6]": {"system": "RF/6A", "assay": "Antimigratory activity in rhesus monkey RF/6A cells measured after 24 hrs by wound assay", "format": "functional, cell-based", "settings": "Macaca mulatta"}, "RF/6A [7]": {"system": "RF/6A", "assay": "Antiproliferative activity in rhesus monkey RF/6A cells measured after 24 to 72 hrs by MTT assay", "format": "functional, cell-based", "settings": "Macaca mulatta"}},
  "note": "The source made the active and inactive calls. The rule behind the calls is not given here.",
  "data": [
    {"smiles": "COc1cc(C2Oc3cc(-c4oc5cc(O)cc(O)c5c(=O)c4O)ccc3OC2CO)ccc1O", "note": "(stereo not drawn) [DEHYDROSILYLBIN]", "values": [
      {"measurement": "inhibition", "setting": "HUVEC [1]", "value": "Active"},
      {"measurement": "IC50", "setting": "HUVEC [2]", "value": 5.4, "unit": "µM"},
      {"measurement": "IC50", "setting": "HUVEC [3]", "value": 12, "unit": "µM"},
      {"measurement": "IC50", "setting": "HUVEC [4]", "value": 12.2, "unit": "µM"}
    ]},
    {"smiles": "COCC1Oc2ccc(-c3oc4cc(O)cc(O)c4c(=O)c3O)cc2OC1c1ccc(O)c(OC)c1", "note": "(stereo not drawn)", "values": [
      {"measurement": "inhibition", "setting": "HUVEC [1]", "value": "Active"},
      {"measurement": "IC50", "setting": "HUVEC [2]", "value": 5.3, "unit": "µM"},
      {"measurement": "IC50", "setting": "HUVEC [3]", "value": 28.3, "unit": "µM"},
      {"measurement": "IC50", "setting": "HUVEC [4]", "value": 10.5, "unit": "µM"}
    ]},
    {"smiles": "COc1cc(C2Oc3cc(-c4oc5cc(OC(=O)c6cc(O)c(O)c(O)c6)cc(O)c5c(=O)c4O)ccc3OC2CO)ccc1O", "note": "(stereo not drawn)", "values": [
      {"measurement": "inhibition", "setting": "HUVEC [1]", "value": "Active"},
      {"measurement": "IC50", "setting": "HUVEC [2]", "value": 1.6, "unit": "µM"},
      {"measurement": "IC50", "setting": "HUVEC [3]", "value": 3.4, "unit": "µM"},
      {"measurement": "IC50", "setting": "HUVEC [4]", "value": 4.7, "unit": "µM"},
      {"measurement": "inhibition", "setting": "HUVEC [4]", "value": "Dose-dependent effect"}
    ]},
    {"smiles": "COc1cc(C2Oc3cc(-c4oc5cc(O)cc(O)c5c(=O)c4OC)ccc3OC2CO)ccc1O", "note": "(stereo not drawn)", "values": [
      {"measurement": "inhibition", "setting": "HUVEC [1]", "value": "Active"},
      {"measurement": "IC50", "setting": "HUVEC [2]", "value": 4.9, "unit": "µM"},
      {"measurement": "IC50", "setting": "HUVEC [3]", "value": 22.5, "unit": "µM"},
      {"measurement": "IC50", "setting": "HUVEC [4]", "value": 11.3, "unit": "µM"}
    ]},
    {"smiles": "COc1cc(O)c2c(=O)c(O)c(-c3ccc4c(c3)OC(c3ccc(O)c(OC)c3)C(CO)O4)oc2c1", "note": "(stereo not drawn)", "values": [
      {"measurement": "inhibition", "setting": "HUVEC [1]", "value": "Active"},
      {"measurement": "IC50", "setting": "HUVEC [2]", "value": 6.7, "unit": "µM"},
      {"measurement": "IC50", "setting": "HUVEC [3]", "value": 15.2, "unit": "µM"},
      {"measurement": "IC50", "setting": "HUVEC [4]", "value": 10.4, "unit": "µM"}
    ]},
    {"smiles": "COc1cc(C2Oc3cc(-c4oc5cc(O)cc(OC)c5c(=O)c4O)ccc3OC2CO)ccc1O", "note": "(stereo not drawn)", "values": [
      {"measurement": "inhibition", "setting": "HUVEC [1]", "value": "Active"},
      {"measurement": "IC50", "setting": "HUVEC [2]", "value": 6.2, "unit": "µM"},
      {"measurement": "IC50", "setting": "HUVEC [3]", "value": 62.4, "unit": "µM"},
      {"measurement": "IC50", "setting": "HUVEC [4]", "value": 11.1, "unit": "µM"}
    ]},
    {"smiles": "O=c1cc(-c2ccc(O)c(O)c2)oc2cc(OC3O[C@H](CO)[C@@H](O)[C@H](O)[C@H]3O)cc(O)c12", "note": "(stereo partly drawn)", "values": [
      {"measurement": "IC50", "setting": "[5]", "value": 18, "unit": "µM"}
    ]},
    {"smiles": "COc1cc(O)c2c(=O)c(OC)c(-c3ccc4c(c3)OC(c3ccc(O)c(OC)c3)C(CO)O4)oc2c1", "note": "(stereo not drawn)", "values": [
      {"measurement": "inhibition", "setting": "HUVEC [1]", "value": "Active"},
      {"measurement": "IC50", "setting": "HUVEC [2]", "value": 8.3, "unit": "µM"},
      {"measurement": "IC50", "setting": "HUVEC [3]", "value": 43.1, "unit": "µM"},
      {"measurement": "IC50", "setting": "HUVEC [4]", "value": 49.9, "unit": "µM"}
    ]},
    {"smiles": "O=c1cc(-c2ccc(O)c(O)c2)oc2cc(O)cc(O)c12", "note": "[LUTEOLIN]", "values": [
      {"measurement": "IC50", "setting": "[5]", "value": 1.9, "unit": "µM"}
    ]},
    {"smiles": "O=c1c(O)c(-c2ccc(O)c(O)c2)oc2cc(O)cc(O)c12", "note": "[QUERCETIN]", "values": [
      {"measurement": "IC50", "setting": "RF/6A [6]", "value": 40, "unit": "µM"},
      {"measurement": "IC50", "setting": "[5]", "value": 5.4, "unit": "µM"},
      {"measurement": "IC50", "setting": "RF/6A [7]", "value": 70, "unit": "µM"}
    ]},
    {"smiles": "COc1cc(C2Oc3cc(-c4oc5cc(O)cc(O)c5c(=O)c4OC(=O)c4cc(O)c(O)c(O)c4)ccc3OC2CO)ccc1O", "note": "(stereo not drawn)", "values": [
      {"measurement": "inhibition", "setting": "HUVEC [1]", "value": "Active"},
      {"measurement": "IC50", "setting": "HUVEC [2]", "value": 11.7, "unit": "µM"},
      {"measurement": "IC50", "setting": "HUVEC [3]", "value": 18.9, "unit": "µM"},
      {"measurement": "IC50", "setting": "HUVEC [4]", "value": 36.8, "unit": "µM"}
    ]}
  ]
}
